Test results reported in the NIST ThermoML archive (doi:10.1016/j.jct.2005.08.015).

Test: of the first substance listed, at infinite dilution; xn = mol fraction of the nth substance listed
Conditions: Liquid, vibrating tube densimetry, x1 = 0

OCCO [1,2-ethanediol] + O
Conditions | partial molar volume [m3/mol]
298.21 K, 640 kPa | 5.462e-05
298.21 K, 29790 kPa | 5.452e-05
298.23 K, 15130 kPa | 5.457e-05
318.17 K, 470 kPa | 5.548e-05
318.17 K, 14770 kPa | 5.53e-05
318.17 K, 30150 kPa | 5.516e-05
338.16 K, 440 kPa | 5.63e-05
338.16 K, 15150 kPa | 5.604e-05
338.16 K, 30360 kPa | 5.584e-05
373.12 K, 30010 kPa | 5.724e-05
373.14 K, 15170 kPa | 5.754e-05
373.15 K, 1960 kPa | 5.78e-05
408.15 K, 30070 kPa | 5.89e-05
408.16 K, 1760 kPa | 5.969e-05
408.16 K, 15000 kPa | 5.932e-05
441.98 K, 1950 kPa | 6.178e-05
442.03 K, 15670 kPa | 6.123e-05
442.04 K, 29810 kPa | 6.072e-05
473.15 K, 1900 kPa | 6.408e-05
473.15 K, 30250 kPa | 6.266e-05
473.16 K, 15750 kPa | 6.337e-05
498.15 K, 15970 kPa | 6.53e-05
498.15 K, 30110 kPa | 6.448e-05
498.16 K, 2930 kPa | 6.621e-05
523.16 K, 5030 kPa | 6.856e-05
523.16 K, 16160 kPa | 6.754e-05
523.16 K, 30260 kPa | 6.653e-05
548.17 K, 7030 kPa | 7.13e-05
548.18 K, 18020 kPa | 6.994e-05
548.18 K, 30300 kPa | 6.88e-05
573.14 K, 30090 kPa | 7.119e-05
573.18 K, 10040 kPa | 7.399e-05
573.19 K, 15080 kPa | 7.318e-05
573.19 K, 19910 kPa | 7.25e-05
573.23 K, 24730 kPa | 7.182e-05

CC(O)CO (stereo unspecified) [1,2-propanediol] + O
Conditions | partial molar volume [m3/mol]
298.21 K, 640 kPa | 7.123e-05
298.22 K, 15160 kPa | 7.119e-05
298.22 K, 29790 kPa | 7.112e-05
318.17 K, 500 kPa | 7.214e-05
318.17 K, 14770 kPa | 7.192e-05
318.17 K, 30140 kPa | 7.175e-05
338.16 K, 440 kPa | 7.321e-05
338.16 K, 15160 kPa | 7.291e-05
338.16 K, 30320 kPa | 7.263e-05
373.13 K, 15150 kPa | 7.509e-05
373.13 K, 29980 kPa | 7.46e-05
373.14 K, 2010 kPa | 7.548e-05
408.15 K, 29980 kPa | 7.718e-05
408.16 K, 1760 kPa | 7.843e-05
408.16 K, 15000 kPa | 7.781e-05
441.99 K, 1840 kPa | 8.185e-05
442.03 K, 15650 kPa | 8.093e-05
442.03 K, 29800 kPa | 8.01e-05
473.15 K, 1890 kPa | 8.576e-05
473.15 K, 15760 kPa | 8.445e-05
473.16 K, 30230 kPa | 8.325e-05
498.15 K, 2930 kPa | 8.947e-05
498.15 K, 15970 kPa | 8.777e-05
498.15 K, 30110 kPa | 8.627e-05
523.16 K, 4980 kPa | 9.38e-05
523.16 K, 16130 kPa | 9.172e-05
523.16 K, 30320 kPa | 8.966e-05
548.17 K, 7020 kPa | 9.914e-05
548.18 K, 18020 kPa | 9.621e-05
548.18 K, 30440 kPa | 9.367e-05
573.14 K, 30360 kPa | 9.86e-05
573.18 K, 10120 kPa | 0.000106
573.19 K, 19990 kPa | 0.0001018

OCC(O)CO [glycerol] + O
Conditions | partial molar volume [m3/mol]
298.21 K, 640 kPa | 7.093e-05
298.21 K, 29800 kPa | 7.103e-05
298.22 K, 15170 kPa | 7.097e-05
318.17 K, 470 kPa | 7.205e-05
318.17 K, 14770 kPa | 7.195e-05
318.17 K, 30260 kPa | 7.194e-05
338.16 K, 440 kPa | 7.304e-05
338.16 K, 15150 kPa | 7.288e-05
338.16 K, 30360 kPa | 7.277e-05
373.13 K, 15180 kPa | 7.444e-05
373.13 K, 30110 kPa | 7.428e-05
373.14 K, 1980 kPa | 7.463e-05
408.15 K, 30120 kPa | 7.586e-05
408.16 K, 1830 kPa | 7.644e-05
408.16 K, 14970 kPa | 7.616e-05
441.99 K, 1850 kPa | 7.825e-05
442.03 K, 15670 kPa | 7.795e-05
442.13 K, 29820 kPa | 7.764e-05
473.15 K, 1960 kPa | 8e-05
473.15 K, 15740 kPa | 7.962e-05
473.16 K, 30290 kPa | 7.92e-05
498.15 K, 3000 kPa | 8.129e-05
498.15 K, 30210 kPa | 8.047e-05
498.16 K, 15930 kPa | 8.087e-05
523.15 K, 16150 kPa | 8.212e-05
523.16 K, 5030 kPa | 8.238e-05
523.16 K, 30280 kPa | 8.184e-05
548.17 K, 7070 kPa | 8.292e-05
548.18 K, 18040 kPa | 8.309e-05
548.18 K, 30570 kPa | 8.347e-05
573.14 K, 30040 kPa | 8.344e-05
573.18 K, 10150 kPa | 8.171e-05
573.19 K, 15080 kPa | 8.249e-05
573.19 K, 19940 kPa | 8.3e-05
573.25 K, 24690 kPa | 8.32e-05

OCCCO [propan-1,3-diol] + O
Conditions | partial molar volume [m3/mol]
298.22 K, 640 kPa | 7.193e-05
298.22 K, 29780 kPa | 7.167e-05
298.23 K, 15160 kPa | 7.183e-05
318.17 K, 480 kPa | 7.262e-05
318.17 K, 14770 kPa | 7.234e-05
318.17 K, 30240 kPa | 7.212e-05
338.16 K, 440 kPa | 7.345e-05
338.16 K, 15130 kPa | 7.315e-05
338.16 K, 30290 kPa | 7.289e-05
373.13 K, 30110 kPa | 7.451e-05
373.14 K, 15170 kPa | 7.496e-05
373.16 K, 1960 kPa | 7.536e-05
408.15 K, 14940 kPa | 7.727e-05
408.15 K, 30010 kPa | 7.668e-05
408.16 K, 1870 kPa | 7.783e-05
442.02 K, 1820 kPa | 8.074e-05
442.03 K, 15700 kPa | 7.994e-05
442.08 K, 29800 kPa | 7.924e-05
473.15 K, 1940 kPa | 8.402e-05
473.16 K, 15710 kPa | 8.291e-05
473.16 K, 30280 kPa | 8.188e-05
498.15 K, 15940 kPa | 8.561e-05
498.16 K, 2960 kPa | 8.701e-05
498.16 K, 30110 kPa | 8.438e-05
523.16 K, 5030 kPa | 9.047e-05
523.16 K, 16160 kPa | 8.885e-05
523.16 K, 30260 kPa | 8.723e-05
548.18 K, 7070 kPa | 9.443e-05
548.18 K, 18040 kPa | 9.233e-05
548.18 K, 30580 kPa | 9.05e-05
573.17 K, 30240 kPa | 9.414e-05
573.18 K, 10100 kPa | 9.925e-05
573.19 K, 19920 kPa | 9.645e-05
